# Experimental data published in PMC9143221 (Pharmaceuticals, 2022).
# Where two headings read alike, the source gives them in different places. Bridge positions count the residues as written; N and C are the ends. Square brackets hold non-standard residues; d marks the D form. Ends that are not written are not given here. Peptide text beside a SMILES is read from it.
# What was measured:
# [1] = system: Vero cells (ATCC, CCL-81)
# [2] = system: Klebsiella pneumoniae E406-17
# pseudo-EBOV (VSV-eGP) [3] = type: cell-based, Ebola virus
# [4] = system: Staphylococcus epidermidis 1457
# [5] = system: Pseudomonas aeruginosa #2
# SARS-CoV-2 WI = conditions: 2 h
# pseudo-EBOV (VSV-eGP) [6] = system: pseudo-EBOV (VSV-eGP)
# [7] = system: Acinetobacter baumannii B28-16
# [8] = system: all the tested antibiotic-resistant pathogens (e.g., MRSA, Escherichia coli, Pseudomonas aeruginosa, and Klebsiella pneumoniae)
# [9] = system: Calu-3 (ATCC, HTB-55) cells; conditions: 48 h
# human red blood cells = conditions: red cells of human
# [10] = system: BALB/c mouse red blood cells
# [11] = system: HaCaT cells (human keratinocytes)
Molecule,"Minimum inhibitory concentration, Klebsiella pneumoniae E406-17 [2]","inhibition of VSV-eGP, treated immediately after infection (pseudo-EBOV (VSV-eGP) [3])","Minimum inhibitory concentration, Staphylococcus epidermidis 1457 [4]","Minimum inhibitory concentration, Pseudomonas aeruginosa #2 [5]","Minimum inhibitory concentration, Escherichia coli E416-7 (Escherichia coli E416-7)","Minimum inhibitory concentration, S. aureus USA300 (S. aureus USA300)",inhibition of SARS-CoV-2 (SARS-CoV-2 WI; 5 µM),inhibition of SARS-CoV-2 (SARS-CoV-2 WI; 10 µM),"Minimum inhibitory concentration, Acinetobacter baumannii B28-16 [7]",hRBC HC50 (50% hemolytic concentration) (human red blood cells),other results
CC(C)C[C@@H](NC(=O)CN)C(=O)N[C@H](CCCNC(=N)N)C(=O)N[C@@H]1CSSC[C@H](C(=O)N[C@H](CC(C)C)C(=O)N[C@H](CC(C)C)C(=O)N[C@H](CCCNC(=N)N)C(=O)O)NC(=O)[C@@H](CCCNC(=N)N)NC(=O)CNC(=O)[C@@H](CC(C)C)NC(=O)[C@@H](CCCNC(=N)N)NC(=O)[C@@H](CCCNC(=N)N)NC(=O)[C@@H](CC(C)C)NC(=O)[C@@H](CC(C)C)NC(=O)[C@@H](CCCNC(=N)N)NC(=O)CNC(=O)[C@@H](CC(C)C)NC(=O)[C@@H](CCCNC(=N)N)NC1=O [DDIP1] (H-G[dL][dR][dC][dR][dL]G[dR][dL][dL][dR][dR][dL]G[dR][dC][dL][dL][dR]-OH; disulfide 4-16; N-terminus assumed),4 µM,~ 15%,4 to 8 µM,4 µM,2 µM,4 µM,42%,~ 55%,2 to 4 µM,,"Vero Cell TC50 [1]: 13.0 µM; inhibition against the virus (VSV-eGP) (pseudo-EBOV (VSV-eGP) [6]; 2 h, 2.5 µM): 7%; inhibition against the virus (VSV-eGP) (pseudo-EBOV (VSV-eGP) [6]; 2 h, 5 µM): 14%; MIC values against all the tested antibiotic-resistant pathogens [8]: 2 to 8 µM"
"CC[C@H](C)[C@H](NC(=O)[C@H](CCCCN)NC(=O)[C@H](CCC(=O)O)NC(=O)[C@H](CCCCN)NC(=O)[C@H](CO)NC(=O)[C@H](CCCCN)NC(=O)[C@H](CCCNC(=N)N)NC(=O)[C@H](Cc1ccccc1)NC(=O)[C@H](Cc1ccccc1)NC(=O)[C@H](CC(=O)O)NC(=O)CNC(=O)[C@H](CC(C)C)NC(=O)[C@@H](N)CC(C)C)C(=O)NCC(=O)N[C@@H](CCCCN)C(=O)N[C@@H](CCC(=O)O)C(=O)N[C@@H](Cc1ccccc1)C(=O)N[C@@H](CCCCN)C(=O)N[C@@H](CCCNC(=N)N)C(=O)N[C@H](C(=O)N[C@H](C(=O)N[C@@H](CCC(N)=O)C(=O)N[C@@H](CCCNC(=N)N)C(=O)N[C@H](C(=O)N[C@@H](CCCCN)C(=O)N[C@@H](CC(=O)O)C(=O)N[C@@H](Cc1ccccc1)C(=O)N[C@@H](CC(C)C)C(=O)N[C@@H](CCCNC(=N)N)C(=O)N[C@@H](CC(N)=O)C(=O)N[C@@H](CC(C)C)C(=O)N[C@H](C(=O)N1CCC[C@H]1C(=O)N[C@@H](CCCNC(=N)N)C(=O)N[C@H](C(=O)N[C@@H](CCC(=O)O)C(=O)N[C@@H](CO)C(=O)O)[C@@H](C)O)C(C)C)[C@@H](C)CC)C(C)C)[C@@H](C)CC [LL-37, reference compound]",,9%,,,,,18%,~ 27%,,,Calu3 Cell TC50 [9]: 19.1 µM; inhibition of VSV-eGP (in words) (pseudo-EBOV (VSV-eGP) [6]): higher viral inhibition than DDIP1
RWLRGLLSGLLR-NH2 [DFTavP3],8 µM,,8 µM,4 to 8 µM,2 to 4 µM,4 µM,,,4 µM,50 µM,
RWLRGLLSGLLRRLLS-NH2 [DFTavP2],4 µM,,2 µM,8 µM,4 µM,4 µM,,,2 µM,below 12.5 µM,"decrease in the viral inhibition compared to DFTavP1 (pseudo-EBOV (VSV-eGP) [6]; 2 h, 5 µM): 33%"
RWLRGLLSGLLRRLLSGLLL-NH2 [DFTavP1],16 to 32 µM,,8 to 16 µM,32 µM,16 µM,8 to 16 µM,,,8 µM,,"hemolysis of murine red blood cells (in words) [10]: highly hemolytic; mRBC HC50 ([10]; red cells of mouse): <10 µM; HaCaT TC50 (peptide concentration that killed 50% of human keratinocytes) [11]: 25 µM; higher inhibition than LL-37 (pseudo-EBOV (VSV-eGP) [6]; 2 h, 2.5 µM): 18%"
RWVRGVVSGVVRRVVS-NH2 [DFTavP4],,,,,16 µM,>64 µM,,,,,
